Source: article PMC8327158, “PEGylated AdipoRon derivatives improve glucose and lipid metabolism under insulinopenic and high-fat diet conditions” (Journal of Lipid Research, 2021)
Several values for one entry are separate records, joined by “and”; a condition that tells them apart may be missing. Identical values can stand only once.

System: INS-1 cells
Experiment: Ceramide and dihydroceramide levels in PA-stressed INS-1 cells by mass spectrometry
Type: cell-based, rat
Details: 24 h, PA 0.25 mM; for Ceramides 14:0 / Ceramides 16:0 / Ceramides 18:0 / Ceramides 18:1 / Ceramides 20:0 / Ceramides 22:0 / Ceramides 24:0 / Ceramides 24:1 / Ceramides 26:0 / Ceramides 26:1 / Dihydroceramides 16:0 / Dihydroceramides 18:0 / Dihydroceramides 20:0 / Dihydroceramides 22:0 / Dihydroceramides 24:0 / Dihydroceramides 24:1: INS1 cells, three replicates
Method: INS-1 cells were seeded at 2 × 10^6/well in a 6-well plate. Cells were treated as follows for 24 h: (i) Control: No FBS or PA (0.25 mM); (ii) Positive Control: 10% FBS + PA (0.25 mM); (iii) Adiponectin (10 nM) + PA (0.25 mM); (iv) AdipoRonPEG6HTL (10 nM) + PA (0.25 mM); (v) AdipoRonPEG6HTL (1 μM) + PA (0.25 mM); (vi) AdipoRonPEG5 (1 μM) + PA (0.25 mM); (vii) AdipoRonPEG5 (20 μM) + PA (0.25 mM). Thereafter, treatment was aspirated, and the cells were washed with cold PBS x 2, scraped off with 1–2 ml PBS, and spun down at 2,500 rpm for 5 min. The supernatant was aspirated, and the pallet was stored at […] for sphingolipid analysis.
Flash-frozen tissue samples (~40 mg) in a borosilicate glass tube were quenched with 2.0 ml of organic extraction solvent (isopropanol: ethyl acetate, 15:85; v:v) and homogenized with a mechanical tissue disruptor. Immediately afterward, 20 μl of organic internal standard solution was added (Ceramide/Sphingoid Internal Standard Mixture II diluted 1:10 in ethanol). The mixture was vortexed for 20 s and sonicated in ultrasonic bath for 40 min at 40°C. The organic extract was allowed to reach room temperature, and 1.5 ml of HPLC water was added and a two-phase liquid-liquid extraction was performed. The upper phase was transferred to a new clean tube, and the lower aqueous phase containing the protein pellet was re-extracted with additional 2.0 ml of organic extraction solvent. The organic phases were combined and dried under nitrogen stream at 40°C. Dried extracts were stored at –80°C until analysis. For analysis of ceramides and sphingoid base species, the dried residues were reconstituted in 200 μl of methanol. Sphingomyelins required a sample dilution of 1:50 in methanol prior to analysis. Serum sphingolipids were extracted using a similar methodology requiring 25 μl of serum.
In total, 5 μl of reconstituted samples was injected into an LC/MS/MS system for the analysis of ceramides and sphingoid bases, and 1 μl injection was required for the analysis of sphingomyelins. The system consisted of a Shimadzu LCMS-8050 triple-quadrupole mass spectrometer with the dual ion source operating in electrospray positive ionization mode. The mass spectrometer is coupled to a Shimadzu Nexera X2 UHPLC system equipped with three solvent delivery modules LC-30AD, three degassing units DGU-20A5R, an autosampler SIL-30ACMP, and a column oven CTO-20AC operating at 40°C (Shimadzu Scientific Instruments, Columbia, MD). Six sphingoid bases (d18:1 sphingosine, d18:1 sphingosine-1-phosphate, d18:1 deoxysphingosine, d18:0 sphinganine, d18:0 sphinganine-1-phosphate, d18:0 deoxysphinganine) and […] ceramide species and their metabolites (C16:0, C16:0 dihydroceramide, C16:0 glucosylceramide, C16:0 lactosylceramide, C16:0 sphingomyelin, C18:0, C18:0 dihydroceramide, C18:0 glucosylceramide, C18:0 sphingomyelin, C18:1, C20:0, C22:0, C22:0 glucosylceramide, C24:0, C24:0 dihydroceramide, C24:0 lactosylceramide, C24:0 sphingomyelin, C24:1, C24:1 dihydroceramide, C24:1 glucosylceramide, C24:1 sphingomyelin). Quantitative analysis of sphingolipids was achieved using selective reaction monitoring scan mode. Lipid separation was achieved by reverse phase LC on a 2.1 (i.d.) × 150 mm Ascentis Express C8, 2.7 micron (Supelco, Bellefonte, PA) column under gradient elution, using three different mobile phases: eluent A consisting of methanol/water/formic acid, 600/400/0.8, v/v/v with 5 mM ammonium formate, eluent B consisting of methanol/formic acid, 1,000/0.8, v/v with 5 mM ammonium formate, and eluent C consisting of CH3OH/CH2Cl2 350/650. The concentration of each metabolite was determined according to calibration curves using the peak-area ratio of analyte versus corresponding internal standard. Calibration curves were generated using serial dilutions of each target analyte.

`O=C(COc1ccc(C(=O)c2ccccc2)cc1)NC1CCN(Cc2ccc(OCCOCCOCCOCCOCCO)cc2)CC1` [AdipoRonPEG5] was tested. Which “C22:0 and C24:0 ceramides” value (1 μM) did it give?
Its value is “significantly reduced”.

And the “overall dihydroceramide and ceramides levels” value?
Its value is “markedly lowered”.

And the “Ceramides 14:0” value (1 μM)?
Its value is 11.37 pg/mg and 8.34 pg/mg and 8.44 pg/mg.

And the “Ceramides 16:0” value (1 μM)?
Its value is 132.31 pg/mg and 60.25 pg/mg and 97.74 pg/mg.

What about the “Ceramides 18:0” value (1 μM) of the same compound?
Its value is 285.84 pg/mg and 108.83 pg/mg and 172.70 pg/mg.

What about the “Ceramides 18:1” value (1 μM) of the same compound?
The value was 2.60 pg/mg and 1.60 pg/mg and 2.34 pg/mg.

What about the “Ceramides 20:0” value (1 μM) of the same compound?
The value was 81.47 pg/mg and 94.91 pg/mg and 71.51 pg/mg.

What about the “Ceramides 22:0” value (1 μM) of the same compound?
Its value is 502.13 pg/mg and 501.01 pg/mg and 352.24 pg/mg.

And the “Ceramides 24:0” value (1 μM)?
Its value is 985.21 pg/mg and 942.22 pg/mg and 715.38 pg/mg.

And the “Ceramides 24:1” value (1 μM)?
Its value is 415.25 pg/mg and 405.60 pg/mg and 306.31 pg/mg.

And the “Ceramides 26:0” value (1 μM)?
Its value is 13.63 pg/mg and 11.39 pg/mg and 10.09 pg/mg.

What about the “Ceramides 26:1” value (1 μM) of the same compound?
The value was 4.83 pg/mg and 4.31 pg/mg and 3.39 pg/mg.

And the “Dihydroceramides 16:0” value (1 μM)?
Its value is 20.35 pg/mg and 15.35 pg/mg and 22.55 pg/mg.

And the “Dihydroceramides 18:0” value (1 μM)?
The value was 114.43 pg/mg and 74.94 pg/mg and 73.63 pg/mg.

What about the “Dihydroceramides 20:0” value (1 μM) of the same compound?
Its value is 37.94 pg/mg and 40.41 pg/mg and 33.11 pg/mg.

And the “Dihydroceramides 22:0” value (1 μM)?
Its value is 124.23 pg/mg and 124.34 pg/mg and 96.61 pg/mg.

And the “Dihydroceramides 24:0” value (1 μM)?
Its value is 149.67 pg/mg and 168.38 pg/mg and 120.04 pg/mg.

And the “Dihydroceramides 24:1” value (1 μM)?
Its value is 47.95 pg/mg and 51.21 pg/mg and 34.41 pg/mg.

What about the “Ceramides 14:0” value (20 μM) of the same compound?
The value was 13.47 pg/mg and 7.61 pg/mg and 10.59 pg/mg.

What about the “Ceramides 16:0” value (20 μM) of the same compound?
The value was 264.29 pg/mg and 93.09 pg/mg and 72.49 pg/mg.

What about the “Ceramides 18:0” value (20 μM) of the same compound?
Its value is 442.08 pg/mg and 170.74 pg/mg and 152.01 pg/mg.

What about the “Ceramides 18:1” value (20 μM) of the same compound?
Its value is 3.76 pg/mg and 2.21 pg/mg and 1.71 pg/mg.

What about the “Ceramides 20:0” value (20 μM) of the same compound?
The value was 86.19 pg/mg and 75.99 pg/mg and 78.87 pg/mg.

What about the “Ceramides 22:0” value (20 μM) of the same compound?
The value was 345.37 pg/mg and 441.95 pg/mg and 372.15 pg/mg.

What about the “Ceramides 24:0” value (20 μM) of the same compound?
The value was 827.24 pg/mg and 951.19 pg/mg and 835.47 pg/mg.

What about the “Ceramides 24:1” value (20 μM) of the same compound?
The value was 377.12 pg/mg and 400.62 pg/mg and 388.65 pg/mg.

What about the “Ceramides 26:0” value (20 μM) of the same compound?
The value was 9.40 pg/mg and 10.66 pg/mg and 9.87 pg/mg.

And the “Ceramides 26:1” value (20 μM)?
Its value is 3.59 pg/mg and 4.43 pg/mg and 3.78 pg/mg.

And the “Dihydroceramides 16:0” value (20 μM)?
The value was 24.81 pg/mg and 12.98 pg/mg and 10.56 pg/mg.

And the “Dihydroceramides 18:0” value (20 μM)?
The value was 94.22 pg/mg and 32.83 pg/mg and 48.23 pg/mg.

And the “Dihydroceramides 20:0” value (20 μM)?
Its value is 22.59 pg/mg and 15.72 pg/mg and 18.47 pg/mg.

And the “Dihydroceramides 22:0” value (20 μM)?
The value was 48.91 pg/mg and 46.89 pg/mg and 48.41 pg/mg.

What about the “Dihydroceramides 24:0” value (20 μM) of the same compound?
The value was 58.93 pg/mg and 62.29 pg/mg and 62.49 pg/mg.

What about the “Dihydroceramides 24:1” value (20 μM) of the same compound?
The value was 21.44 pg/mg and 23.79 pg/mg and 23.03 pg/mg.
